Consider twelve compounds from patent US20260138976A1 (Hoffmann-La Roche Inc., priority 2022, published 2026).

In assay [1] the test system is primary human T-cells. The experiment in a line: IL2 secretion measurements (24 h, CD3-stimulated T-cells, PBS counter screen). The class given is cell-based. Conditions: for Emax IL2 (% activation): CD3 condition, normalised to DMSO (neutral) and 20 μM reference compound A1 = 100%; for EC50: CD3-stimulated primary human T-cells, IL2 secretion, fitted sigmoidal curve, read-out: Tcell IL2 CD3 EC50. Here is the method: As readouts for T-cell activation, 1L2 secretion after 24 hours and proliferation after 5 days was measured. Increases in IL2 secretion and proliferation upon compound treatment were assessed as the % of the maximum of reference compound A1. WO 2016/139181 discloses reference compound A1 as example 70. As a counter screen and to make sure that no unwanted TCR-independent activation was triggered, PBS conditions were run for all compounds.
Expanded primary human T-cells were thawed and cultured in RPMI 1640 (Gibco, #61870-010)+5% human serum (HS, Sigma, #H3667)+1 mM Sodium Pyruvate (Gibco, #11360-039)+50 μM 2-mercaptoethanol (Gibco, #31350-010) and 1× Pen-Strep (Life Technologies, #15140122) medium at density of 2 Mio/ml for 3 hours in 5% CO2, 37° C. and 95% humidity. For coating of plates, […] or PBS++ with CD3 antibody (concentration depending on donor and determined by CD3 titrations) was added 100 μl/well to Poly-D Lysine coated 96-well plates. Plates were sealed and incubated at room temperature for 3 hours on a table-top rocking platform. After incubation, plates were washed once with PBS−− and filled with 40 μl/well culture medium only. Compounds were then added (see next section) to medium only plates. After 3 hours of culturing the T-cells, cells were filtered through a cell strainer (Miltenyi Biotech, #130-041-407), counted again and concentration was adjusted to 1.25 Mio/ml.
Cells were then seeded 80 μl/well to the 40 μl/well including dispensed compounds according to plate layout. By adding cells, compounds were further diluted 1:3, and resulting in 100 k cells/120 μl/well. After 24 hours 40 μl of supernatant was collected carefully from the top while not disturbing the cells and transferred into a round bottom 96 well plate. Collected and frozen supernatant was used for detection of IL2 using the IL-2 Human ProQuantum Immunoassay Kit (Invitrogen) or using the Human IL-2 ELISA Kit (Thermo Fisher).
Compounds were added in a 5 or 6 pt dose response with the Tecan D300e Digital Dispenser, all conditions 3 times more concentrated than the end-concentration, since cells are added afterwards (80 μl cells to 40 μl prepared medium with treatment). The DR was starting at 20 μM or 10 μM final top concentration and a dilution factor of 3.333. The positive control was the reference compound A1 that was added in a dose response as well, additionally to 3 wells of only 20 μM representing the positive stimulator control. All wells were normalized with DMSO to a final concentration of 0.6% (0.2% end-concentration).
The immunoassay is done following the manufacturer's manual (Invitrogen, #A35603). Additional information: For the immunoassay, MicroAmp™ EnduraPlate™ Optical 384-Well plates are used. Frozen supernatant is thawed and centrifuged for 5 minutes at 1000×g, both steps at 4° C. After centrifugation, required sample amount is taken from the top, and in a separate LightCycler V-bottom plate (working plate) diluted with assay dilution buffer, dilution factor depending on the PBS or CD3 condition but at least 1:3. IL-2 standard and blanks are prepared in the same V-bottom plate, standard with a range of 0.0128-5000 pg/ml (extended version). After preparation, 5 μl of sample dilutions or standard/blanks are transferred to the optical 384-well plate (assay plate) and the 10 μl reaction protocol is being followed. For measurement, the QuantStudio 12K Flex system is used. Raw data is extracted and IL-2 concentrations are calculated with the Thermo Fisher online app (apps.thermofisher.com/apps/proquantum).
ELISA is done following the manufacturer's manual (Thermo Fisher Scientific, #88-7025-88). Additional information: For the ELISA Nunc MaxiSorp 96 well plates are used. Frozen supernatant is thawed and centrifuged for 5 minutes at 1000×g, both steps at 4° C. […]

The subject of assay [2] is primary human T-cells. Nature of the assay: Proliferation assay (5 days, CellTiter-Glo, CD3-stimulated T-cells). Conditions: for Emax proliferation (% activation): CD3 condition, normalised to DMSO (neutral) and 20 μM reference compound A1 = 100%; for EC50: Homo sapiens, T-cell, 120 h, CD3-stimulated primary human T-cells, 5 days, CellTiter-Glo, fitted sigmoidal curve, read-out: Tcell Proliferation CD3 EC50. The class given is cell-based. In short, it runs like this: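 Expanded primary human T-cells, 100 k cells/well, were stimulated with plate-coated CD3 antibody (donor-titrated) and given compound in a 5 or 6 pt dose response from 20 μM or 10 μM final top, 0.2% DMSO final. ATP was read by CellTiter-Glo after 5 days. EC50 and Emax were reported as % of 20 μM reference compound A1.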
For orientation: ATP-based viability assays read luminescence as a measure of living cells.

Structures are written as SMILES.

On to `N[C@H]1CS(=O)(=O)c2cc(F)c(-c3noc(C4(CO)CCCO4)n3)cc2N(Cc2ccc(-c3noc(C(F)(F)F)n3)cc2)C1=O` (stereo partly drawn) [Example 18, (3R)-3-amino-8-fluoro-7-[5-[2-(hydroxymethyl)tetrahydrofuran-2-yl]-1,2,4-oxadiazol-3-yl]-1,1-dioxo-5-[[4-[5-(trifluoromethyl)-1,2,4-oxadiazol-3-yl]phenyl]methyl]-2,3-dihydro-1λ^6,5-benzothiazepin-4-one], for which the “Emax IL2 (% activation)” value in assay [1] amounted to 529 % activation. For the same compound, the EC50 in assay [1] (Homo sapiens, T-cell) stood at 0.849 µM. Also, in assay [2], the “Emax proliferation (% activation)” value is recorded as 275 % activation and the EC50 came to 0.445 µM.

Take `C[C@@](N)(c1nnc(-c2ccc3c(c2)N(Cc2ccc(-c4ccc(OC(F)(F)F)cn4)cc2)C(=O)[C@@H](N)CS3(=O)=O)o1)C(F)(F)F` [Example 153, (3R)-3-amino-7-[5-[(1R)-1-amino-2,2,2-trifluoro-1-methyl-ethyl]-1,3,4-oxadiazol-2-yl]-1,1-dioxo-5-[[4-[5-(trifluoromethoxy)-2-pyridyl]phenyl]methyl]-2,3-dihydro-1λ^6,5-benzothiazepin-4-one]: in assay [1], the “Emax IL2 (% activation)” value worked out at 193 % activation. The EC50 in assay [1] (Homo sapiens, T-cell) was 0.245 µM. Besides, in assay [2], the “Emax proliferation (% activation)” value was 178 % activation and the EC50 came to 0.13 µM.

In the case of `COC(=O)N1CC2CC(c3nnc(-c4ccc5c(c4)N(Cc4ccc(-c6ccc(C(F)(F)F)cc6)nc4)C(=O)[C@@H](N)CS5(=O)=O)o3)(C2)C1` [Example 58, methyl 1-[5-[(3R)-3-amino-1,1,4-trioxo-5-[[6-[4-(trifluoromethyl)phenyl]-3-pyridyl]methyl]-2,3-dihydro-1λ^6,5-benzothiazepin-7-yl]-1,3,4-oxadiazol-2-yl]-3-azabicyclo[3.1.1]heptane-3-carboxylate], the “Emax IL2 (% activation)” value in assay [1] was 505 % activation. Moreover, the EC50 in assay [1] (Homo sapiens, T-cell) is 4.71 µM. For the same compound, in assay [2], the “Emax proliferation (% activation)” value worked out at 114 % activation and the EC50 stood at 0.531 µM.

Take `N[C@H]1CS(=O)(=O)c2ccc(-c3nnc(C4(CO)CCCO4)o3)cc2N(Cc2ccc(-c3noc(C(F)(F)F)n3)cc2)C1=O` (stereo partly drawn) [Example 54, (3R)-3-amino-7-[5-[2-(hydroxymethyl)tetrahydrofuran-2-yl]-1,3,4-oxadiazol-2-yl]-1,1-dioxo-5-[[4-[5-(trifluoromethyl)-1,2,4-oxadiazol-3-yl]phenyl]methyl]-2,3-dihydro-1λ^6,5-benzothiazepin-4-one]: in assay [1], the “Emax IL2 (% activation)” value is reported as 126 % activation. Further, in assay [1] (Homo sapiens, T-cell), the EC50 amounted to 3.34 µM. In addition, in assay [2], the “Emax proliferation (% activation)” value was 94 % activation and the EC50 is 0.892 µM.

Turning to `CC(N)(c1nnc(-c2ccc3c(c2)N(Cc2ccc(-c4noc(C(F)(F)F)n4)cc2)C(=O)[C@@H](N)CS3(=O)=O)o1)C(F)(F)F` (stereo partly drawn) [Example 32, (3R)-3-amino-7-[5-(1-amino-2,2,2-trifluoro-1-methyl-ethyl)-1,3,4-oxadiazol-2-yl]-1,1-dioxo-5-[[4-[5-(trifluoromethyl)-1,2,4-oxadiazol-3-yl]phenyl]methyl]-2,3-dihydro-1λ^6,5-benzothiazepin-4-one], in assay [1], the “Emax IL2 (% activation)” value is on record as 321 % activation. Moreover, the EC50 is 1.92 µM in assay [1] (Homo sapiens, T-cell) and 0.468 µM in assay [2]. Further, the “Emax proliferation (% activation)” value in assay [2] is 153 % activation.

For the compound `CC(C)(C#N)c1nnc(-c2ccc3c(c2)N(Cc2ccc(-c4ccnc(C(F)(F)F)c4)cc2)C(=O)[C@@H](N)CS3(=O)=O)o1` [Example 111, 2-[5-[(3R)-3-amino-1,1,4-trioxo-5-[[4-[2-(trifluoromethyl)-4-pyridyl]phenyl]methyl]-2,3-dihydro-1λ^6,5-benzothiazepin-7-yl]-1,3,4-oxadiazol-2-yl]-2-methyl-propanenitrile], the “Emax IL2 (% activation)” value in assay [1] stood at 151 % activation. The EC50 in assay [1] (Homo sapiens, T-cell) worked out at 1.86 µM. In assay [2], the “Emax proliferation (% activation)” value is given as 117 % activation and the EC50 was found to be 0.926 µM.

In the case of `N[C@H]1CS(=O)(=O)c2ccc(-c3nnc(C(N)(C4CC4)C(F)(F)F)o3)cc2N(Cc2ccc(-c3noc(C4CC4)n3)cc2)C1=O` (stereo partly drawn) [Example 171], the “Emax IL2 (% activation)” value in assay [1] amounted to 122 % activation. Moreover, the EC50 worked out at 3.78 µM in assay [1] (Homo sapiens, T-cell) and 1.52 µM in assay [2]. In addition, the “Emax proliferation (% activation)” value in assay [2] is listed as 109 % activation.

On to `COC(=O)N1CC2CC(c3nnc(-c4ccc5c(c4)N(Cc4ccc(-c6noc(C(F)(F)F)n6)cc4)C(=O)[C@@H](N)CS5(=O)=O)o3)(C2)C1` [Example 158, methyl 1-[5-[(3R)-3-amino-1,1,4-trioxo-5-[[4-[5-(trifluoromethyl)-1,2,4-oxadiazol-3-yl]phenyl]methyl]-2,3-dihydro-1λ^6,5-benzothiazepin-7-yl]-1,3,4-oxadiazol-2-yl]-3-azabicyclo[3.1.1]heptane-3-carboxylate], for which, in assay [1], the EC50 was 1.34 µM and the “Emax IL2 (% activation)” value turned out to be 345 % activation. In assay [2], the “Emax proliferation (% activation)” value came out at 150 % activation and the EC50 came out at 0.304 µM.

In the case of `CC(C)(c1nnc(-c2ccc3c(c2)N(Cc2ccc(-c4ccc(OC(F)(F)F)cn4)cc2)C(=O)[C@@H](N)CS3(=O)=O)o1)C(F)(F)F` [Example 165, (3R)-3-amino-1,1-dioxo-7-[5-(2,2,2-trifluoro-1,1-dimethyl-ethyl)-1,3,4-oxadiazol-2-yl]-5-[[4-[5-(trifluoromethoxy)-2-pyridyl]phenyl]methyl]-2,3-dihydro-1λ^6,5-benzothiazepin-4-one], in assay [1], the “Emax IL2 (% activation)” value is 123 % activation. Besides, the EC50 in assay [1] (Homo sapiens, T-cell) was 1.33 µM. Besides, in assay [2], the “Emax proliferation (% activation)” value is 139 % activation and the EC50 was determined as 0.153 µM.

Turning to `N#CC1(c2nc(-c3cc4c(cc3F)S(=O)(=O)C[C@H](N)C(=O)N4Cc3ccc(-c4ccc(C(F)(F)F)cn4)cc3)no2)CC1` [Example 17], in assay [1], the “Emax IL2 (% activation)” value was 221 % activation. The EC50 in assay [1] (Homo sapiens, T-cell) was 1.54 µM. Also, in assay [2], the “Emax proliferation (% activation)” value was determined as 167 % activation and the EC50 was determined as 0.0501 µM.

For `Cn1nc(C(F)(F)F)cc1-c1ccc(CN2C(=O)[C@@H](N)CS(=O)(=O)c3ccc(-c4nnc(C(C)(C)C#N)o4)cc32)cc1` [Example 107, 2-[5-[(3R)-3-amino-5-[[4-[2-methyl-5-(trifluoromethyl)pyrazol-3-yl]phenyl]methyl]-1,1,4-trioxo-2,3-dihydro-1λ^6,5-benzothiazepin-7-yl]-1,3,4-oxadiazol-2-yl]-2-methyl-propanenitrile], in assay [1], the “Emax IL2 (% activation)” value is 241 % activation. In addition, the EC50 in assay [1] (Homo sapiens, T-cell) worked out at 1.39 µM; in assay [2] it was 2.16 µM. In assay [2], the “Emax proliferation (% activation)” value is 165 % activation.

As to `CC(C)(C)C(N)c1nnc(-c2ccc3c(c2)N(Cc2ccc(-c4noc(C(F)(F)F)n4)cc2)C(=O)[C@@H](N)CS3(=O)=O)o1` (stereo partly drawn) [Example 34, (3R)-3-amino-7-[5-(1-amino-2,2-dimethyl-propyl)-1,3,4-oxadiazol-2-yl]-1,1-dioxo-5-[[4-[5-(trifluoromethyl)-1,2,4-oxadiazol-3-yl]phenyl]methyl]-2,3-dihydro-1λ^6,5-benzothiazepin-4-one], the “Emax IL2 (% activation)” value in assay [1] is 69 % activation. Also, the EC50 worked out at 4.9 µM in assay [1] (Homo sapiens, T-cell) and 1.18 µM in assay [2]. Besides, in assay [2], the “Emax proliferation (% activation)” value was determined as 67 % activation.
